# Patent US4694069A, “Kibdelosporangium aridum SK&F-AAD-609” (SmithKline Beckman Corporation, priority 1985, dated 1987)
# Tests used:
# SK&F-AAD-609 = assay: Susceptibility of SK&F-AAD-609 to antibiotics (diffusion method, BBL susceptibility disks); assay type: cell-based, Kibdelosporangium aridum subsp. largum; details: 28° C., one week
# Description: Susceptibility of SK&F-AAD-609 to antibiotics was examined by placing BBL susceptibility disks on nutrient agar plates seeded with SK&F-ADD-609 as an agar overlay. Plates were placed at 4° C. for one hour to permit diffusion of the anitbiotics and, subsequently, incubated at 28° C. Diameters of the zones of inhibition were measured after incubation for one week.
# Susceptibility to Antibiotics. […] Chlortetracycline (5 μg) produced 17-18 mm zones of inhibition; tetracycline (5 μg) 9-12 mm zones; rifampin (5 μg) 10-12 mm zones; novobiocin (5 μg) 30-35 mm zones. All zones of inhibition contained at least a few resistant colonies.
# [1] = tested on: mixed intestinal microflora (cecum fluid); assay: Swine in vitro model; details: one level, up to 166.67 ppm; 4-5 h
# Description: A swine in vitro model was used to characterize AAD-609 antibiotics as potential feed additives in swine and poultry. Mixed intestinal microflora were obtained from ileally-cannulated pigs. Virginiamycin, carbadox, AAD-216 and its components, and AAD-609 Complex (containing less than 5% AAD-216 antibiotics) were tested at one level. […] Glucose (GLU) was spared from microbial degradation. Volatile fatty acids (TOTAL) were the major end-product of microbial metabolism while lactic acid production were reduced. […] Since AAD-609 and AAD-216 give similar in vitro results, it is expected that AAD-609 has similar growth-promoting activity in monogastric animals. Also, the in vitro activity of AAD-609 is similar to the activity previously observed with bacitracin in this model.
# The swine in vitro model was carried out by incubating 1.5 ml of cecum fluid, from a swine fed normal rations, mixed with 1.5 ml of a nutrient broth (3 mg casein hydrolysate, 30 mg maltose, 1.25 mg urea, 0.5 mg lysine, and 30 mg cellobiose) and with up to 166.67 parts per million of a selected growth promotant at 39° C., with oscillation, for about 4-5 hours. Results, percentage of control, are reported in the following table in which all abbreviations are as above except that LLA means L-lactate and ETOH means ethanol.
# [2] = tested on: rumen fermentation (strained rumen fluid); assay: Rumen in vitro model; parameters: species or system steer; details: for AAN (alpha amino nitrogen) / AMO (ammonia nitrogen) / LYS (lysine): 6 h; for % PR (percent propionate) / ACE (acetate) / BUT (butyrate) / ETOH (ethanol) / IBU (isobutyrate) / IVA (isovalerate) / PRO (propionate) / TOTAL (total volatile fatty acids) / VAL: 24 h
# Description: The AAD-609 antibiotics were characterized in a rumen in vitro model to assess their potential as feed additives for ruminants. […] Specifically, strained rumen fluid (10 ml) obtained from a fistulated steer receiving a roughage ration, was mixed with 10 ml of nutrient broth (20 mg casein hydrolysate, 100 mg maltose, 15 mg urea, 400 mg solka floc (cellulose), 100 mg cellobiose and 100 mg starch) and with a selected growth promotant and incubated at 39° C., with oscillation, for 24 hours. […] Measurement of AMO, LYS and AAN was done with a sample taken from the incubation flask after 6 hours.
compound,measurement,setting,value
CC1(C)S[C@@H]2[C@H](NC(=O)Cc3ccccc3)C(=O)N2[C@H]1C(=O)O [penicillin],Susceptibility (diffusion method),SK&F-AAD-609; disk 10 units,resistant
CO[C@@H]1[C@@H](OC(N)=O)[C@@H](O)[C@H](Oc2ccc3c(O)c(NC(=O)c4ccc(O)c(CC=C(C)C)c4)c(=O)oc3c2C)OC1(C)C [novobiocin],Zone of inhibition (diameter),SK&F-AAD-609; disk 5 μg,30-35 mm
O=C(N[C@H](CO)[C@H](O)c1ccc([N+](=O)[O-])cc1)C(Cl)Cl [chloramphenicol],Susceptibility (diffusion method),SK&F-AAD-609; disk 5 μg,resistant
NC[C@H]1O[C@H](O[C@H]2[C@H](O)[C@@H](O[C@H]3O[C@H](CO)[C@@H](O)[C@H](N)[C@H]3O)[C@H](N)C[C@@H]2N)[C@H](N)C[C@@H]1O [tobramycin],Susceptibility (diffusion method),SK&F-AAD-609; disk 10 μg,resistant
CC1(C)S[C@@H]2[C@H](NC(=O)[C@H](N)c3ccccc3)C(=O)N2[C@H]1C(=O)O [ampicillin],Susceptibility (diffusion method),SK&F-AAD-609; disk 10 μg,resistant
[H]/N=C(/N)N[C@H]1[C@H](O)[C@@H](O)[C@H](O[C@@H]2O[C@@H](C)[C@](O)(C=O)[C@H]2O[C@@H]2O[C@@H](CO)[C@H](O)[C@@H](O)[C@@H]2NC)[C@@H](N/C(N)=N\[H])[C@@H]1O [streptomycin],Susceptibility (diffusion method),SK&F-AAD-609; disk 10 μg,resistant
gentamicin,Susceptibility (diffusion method),SK&F-AAD-609; disk 10 μg,resistant
CNC1C(=O)NC2C(=O)NC(C(=O)NC3C(=O)NC4C(=O)NC(C(=O)NC(C(=O)O)c5cc(O)cc(OC6OC(CO)C(O)C(O)C6O)c5-c5cc4ccc5O)C(O)c4cc(Cl)c(c(Cl)c4)Oc4cc3cc(c4OC3OC(C(=O)O)C(O)C(O)C3NC(=O)CCCCCCCC(C)C)Oc3ccc(cc3Cl)C2O)c2cc(cc(O)c2Cl)Oc2cc1ccc2O (stereo not shown) [AAD-216 B],% PR (percent propionate),[1],119 % of control
same,ACE (acetate),[1],217 % of control
same,BUT (butyrate),[1],154 % of control
same,ETOH (ethanol),[1],104 % of control
same,GLU (glucose),[1],180 % of control
same,IBU (isobutyrate),[1],0 % of control
same,IVA (isovalerate),[1],0 % of control
same,LLA (L-lactate),[1],2 % of control
same,LYS (lysine),[1],25 % of control
same,PRO (propionate),[1],305 % of control
same,TOTAL (total volatile fatty acids),[1],257 % of control
same,VAL,[1],0 % of control
same,AAN (alpha amino nitrogen),[2]; 0.50 ppm,121 % of control
same,AMO (ammonia nitrogen),[2]; 0.50 ppm,96 % of control
same,LYS (lysine),[2]; 0.50 ppm,96 % of control
same,% PR (percent propionate),[2]; 0.50 ppm,104 % of control
same,ACE (acetate),[2]; 0.50 ppm,107 % of control
same,BUT (butyrate),[2]; 0.50 ppm,97 % of control
same,ETOH (ethanol),[2]; 0.50 ppm,0 % of control
same,IBU (isobutyrate),[2]; 0.50 ppm,108 % of control
same,IVA (isovalerate),[2]; 0.50 ppm,94 % of control
same,PRO (propionate),[2]; 0.50 ppm,108 % of control
same,TOTAL (total volatile fatty acids),[2]; 0.50 ppm,103 % of control
same,VAL,[2]; 0.50 ppm,101 % of control
same,AAN (alpha amino nitrogen),[2]; 5.00 ppm,140 % of control
same,AMO (ammonia nitrogen),[2]; 5.00 ppm,93 % of control
same,LYS (lysine),[2]; 5.00 ppm,120 % of control
same,% PR (percent propionate),[2]; 5.00 ppm,141 % of control
same,ACE (acetate),[2]; 5.00 ppm,106 % of control
same,BUT (butyrate),[2]; 5.00 ppm,88 % of control
same,ETOH (ethanol),[2]; 5.00 ppm,0 % of control
same,IBU (isobutyrate),[2]; 5.00 ppm,95 % of control
same,IVA (isovalerate),[2]; 5.00 ppm,67 % of control
same,PRO (propionate),[2]; 5.00 ppm,153 % of control
same,TOTAL (total volatile fatty acids),[2]; 5.00 ppm,108 % of control
same,VAL,[2]; 5.00 ppm,86 % of control
same,AAN (alpha amino nitrogen),[2]; 50.00 ppm,178 % of control
same,AMO (ammonia nitrogen),[2]; 50.00 ppm,107 % of control
same,LYS (lysine),[2]; 50.00 ppm,132 % of control
same,% PR (percent propionate),[2]; 50.00 ppm,144 % of control
same,ACE (acetate),[2]; 50.00 ppm,103 % of control
same,BUT (butyrate),[2]; 50.00 ppm,98 % of control
same,ETOH (ethanol),[2]; 50.00 ppm,0 % of control
same,IBU (isobutyrate),[2]; 50.00 ppm,123 % of control
same,IVA (isovalerate),[2]; 50.00 ppm,111 % of control
same,PRO (propionate),[2]; 50.00 ppm,159 % of control
same,TOTAL (total volatile fatty acids),[2]; 50.00 ppm,110 % of control
same,VAL,[2]; 50.00 ppm,28 % of control
CN(C)[C@@H]1C(O)=C(C(N)=O)C(=O)[C@@]2(O)C(O)=C3C(=O)c4c(O)ccc(Cl)c4[C@@](C)(O)[C@H]3C[C@@H]12 [Chlortetracycline],Zone of inhibition (diameter),SK&F-AAD-609; disk 5 μg,17-18 mm
CN(C)[C@@H]1C(=O)C(C(N)=O)=C(O)[C@@]2(O)C(=O)C3=C(O)c4c(O)cccc4[C@@](C)(O)[C@H]3C[C@@H]12 [tetracycline],Zone of inhibition (diameter),SK&F-AAD-609; disk 5 μg,9-12 mm
CC(=O)OCC1=C(C(=O)O)N2C(=O)[C@@H](NC(=O)Cc3cccs3)[C@H]2SC1 [cephalothin],Susceptibility (diffusion method),SK&F-AAD-609; disk 30 μg,resistant
CNC1C(=O)NC2C(=O)NC(C(=O)NC3C(=O)NC4C(=O)NC(C(=O)NC(C(=O)O)c5cc(O)cc(OC6OC(CO)C(O)C(O)C6O)c5-c5cc4ccc5O)C(O)c4cc(Cl)c(c(Cl)c4)Oc4cc3cc(c4OC3OC(C(=O)O)C(O)C(O)C3NC(=O)CCCCCCCCC(C)C)Oc3ccc(cc3Cl)C2O)c2cc(cc(O)c2Cl)Oc2cc1ccc2O (stereo not shown) [AAD-216 C],% PR (percent propionate),[1],127 % of control
same,ACE (acetate),[1],175 % of control
same,BUT (butyrate),[1],105 % of control
same,ETOH (ethanol),[1],0 % of control
same,GLU (glucose),[1],181 % of control
same,IBU (isobutyrate),[1],0 % of control
same,IVA (isovalerate),[1],0 % of control
same,LLA (L-lactate),[1],2 % of control
same,LYS (lysine),[1],29 % of control
same,PRO (propionate),[1],281 % of control
same,TOTAL (total volatile fatty acids),[1],221 % of control
same,VAL,[1],0 % of control
same,AAN (alpha amino nitrogen),[2]; 0.50 ppm,96 % of control
same,AMO (ammonia nitrogen),[2]; 0.50 ppm,99 % of control
same,LYS (lysine),[2]; 0.50 ppm,78 % of control
same,% PR (percent propionate),[2]; 0.50 ppm,105 % of control
same,ACE (acetate),[2]; 0.50 ppm,94 % of control
same,BUT (butyrate),[2]; 0.50 ppm,101 % of control
same,ETOH (ethanol),[2]; 0.50 ppm,0 % of control
same,IBU (isobutyrate),[2]; 0.50 ppm,123 % of control
same,IVA (isovalerate),[2]; 0.50 ppm,123 % of control
same,PRO (propionate),[2]; 0.50 ppm,105 % of control
same,TOTAL (total volatile fatty acids),[2]; 0.50 ppm,100 % of control
same,VAL,[2]; 0.50 ppm,102 % of control
same,AAN (alpha amino nitrogen),[2]; 5.00 ppm,136 % of control
same,AMO (ammonia nitrogen),[2]; 5.00 ppm,98 % of control
same,LYS (lysine),[2]; 5.00 ppm,102 % of control
same,% PR (percent propionate),[2]; 5.00 ppm,148 % of control
same,ACE (acetate),[2]; 5.00 ppm,96 % of control
same,BUT (butyrate),[2]; 5.00 ppm,83 % of control
same,ETOH (ethanol),[2]; 5.00 ppm,0 % of control
same,IBU (isobutyrate),[2]; 5.00 ppm,86 % of control
same,IVA (isovalerate),[2]; 5.00 ppm,56 % of control
same,PRO (propionate),[2]; 5.00 ppm,148 % of control
same,TOTAL (total volatile fatty acids),[2]; 5.00 ppm,100 % of control
same,VAL,[2]; 5.00 ppm,51 % of control
same,AAN (alpha amino nitrogen),[2]; 50.00 ppm,166 % of control
same,AMO (ammonia nitrogen),[2]; 50.00 ppm,106 % of control
same,LYS (lysine),[2]; 50.00 ppm,144 % of control
same,% PR (percent propionate),[2]; 50.00 ppm,149 % of control
same,ACE (acetate),[2]; 50.00 ppm,98 % of control
same,BUT (butyrate),[2]; 50.00 ppm,88 % of control
same,ETOH (ethanol),[2]; 50.00 ppm,0 % of control
same,IBU (isobutyrate),[2]; 50.00 ppm,111 % of control
same,IVA (isovalerate),[2]; 50.00 ppm,87 % of control
same,PRO (propionate),[2]; 50.00 ppm,154 % of control
same,TOTAL (total volatile fatty acids),[2]; 50.00 ppm,104 % of control
same,VAL,[2]; 50.00 ppm,30 % of control
